Measurements as given in patent US11912723B2, “KRAS modulators and uses thereof” (Quanta Therapeutics, Inc., priority 2022, dated 2024).

How the values were obtained:
[1] = tested on: AGS (KRAS G12D) cells, phospho-ERK; assay: pERK In Cell Western (ICW) assay (Method B); format: cell-based; details: 3 hours
Method in brief: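 AGS cells seeded at 5,000/well, grown overnight, then treated 3 h at 37 °C with ½-log 10-point dilutions (top 10 μM). Fixed cells stained for phospho-ERK, normalized to DRAQ5 DNA signal and to DMSO control; IC50 from 4-parameter variable-slope fit.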

[2] = target: T1, GST-tagged KRAS G12D (2-169) (Homo sapiens, UniProt P01116, G12D); assay: Nucleotide exchange assay (NEA), HTRF of SOS-mediated GTP-DY-647P1 binding; format: biochemical; details: 5 nM GST-KRAS G12D, 20 nM SOScat, 150 nM GTP; compound 1 h at RT
T1 construct: GST-tagged KRAS^G12D (2-169, Reaction Biology, MSC-11-539); purchased Reaction Biology MSC-11-539 (KRAS G12D); MSC-11-502 (SOS1cat)
Method in brief: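 SOS1cat (564-1049)-driven loading of GTP-DY-647P1 onto KRAS G12D, read by HTRF with anti-GST Tb cryptate donor; compound preincubated with KRAS 1 h at RT. Final 5 nM KRAS, 20 nM SOScat, 150 nM GTP, pH 7.3 HEPES buffer; read up to 90 min at RT. Blanked to no-SOS1; 4-parameter fit of % inhibition.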

T1 sequence (P01116 2-169 isoform P01116-2 G12D): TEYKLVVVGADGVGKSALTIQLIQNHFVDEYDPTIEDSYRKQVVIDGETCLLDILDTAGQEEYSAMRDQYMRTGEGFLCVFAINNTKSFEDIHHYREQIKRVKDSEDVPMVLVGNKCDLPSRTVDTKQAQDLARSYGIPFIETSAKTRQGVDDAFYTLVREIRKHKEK

SMILES: CN1Cc2c(nc(OC[C@@]34CCCN3C[C@H](F)C4)nc2N2CCC[C@]3(C2)NC(=O)NC3=O)C[C@]12CCc1ccccc12 [Compound 60, (5R)-9-[(7S)-2-[[(2R,8S)-2-fluoro-1,2,3,5,6,7-hexahydropyrrolizin-8-yl]methoxy]-6-methyl-spiro[5,8-dihydropyrido[4,3-d]pyrimidine-7,1′-indane]-4-yl]-1,3,9-triazaspiro[4.5]decane-2,4-dione]
- IC50 ([1]; Homo sapiens): > 10 µM
- IC50 [2]: 0.1 to 1 µM

SMILES: CN(C)C(=O)c1nn2c(c1Cl)CN(c1nc(OC[C@@]34CCCN3C[C@H](F)C4)nc3c1CN(C)[C@@]1(CCc4c(F)ccc(F)c41)C3)CCC2 [Compound 61, 3-chloro-5-[(7S)-4′,7′-difluoro-2-[[(2R,8S)-2-fluoro-1,2,3,5,6,7-hexahydropyrrolizin-8-yl]methoxy]-6-methyl-spiro[5,8-dihydropyrido[4,3-d]pyrimidine-7,1′-indane]-4-yl]-N,N-dimethyl-4,6,7,8-tetrahydropyrazolo[1,5-a][1,4]diazepine-2-carboxamide]
- IC50 ([1]; Homo sapiens): 0.01 to 0.1 µM
- IC50 [2]: < 0.01 µM

SMILES: CN(C)C(=O)c1nn2c(c1Cl)CN(c1nc(OC[C@@]34CCCN3C[C@H](F)C4)nc3c1CN(C)[C@@]1(CCc4cccc(Cl)c41)C3)CCC2 [Compound 69, 3-chloro-5-[(7S)-7′-chloro-2-[[(2R,8S)-2-fluoro-1,2,3,5,6,7-hexahydropyrrolizin-8-yl]methoxy]-6-methyl-spiro[5,8-dihydropyrido[4,3-d]pyrimidine-7,1′-indane]-4-yl]-N,N-dimethyl-4,6,7,8-tetrahydropyrazolo[1,5-a][1,4]diazepine-2-carboxamide]
- IC50 ([1]; Homo sapiens): 0.01 to 0.1 µM
- IC50 [2]: < 0.01 µM

SMILES: CN(C)C(=O)c1nn2c(c1Cl)CN(c1nc(OC[C@@]34CCCN3C[C@H](F)C4)nc3c1CN(C)[C@@]1(CCCc4ccccc41)C3)CCC2 [Compound 64, 3-chloro-5-[(7S)-2-[[(2R,8S)-2-fluoro-1,2,3,5,6,7-hexahydropyrrolizin-8-yl]methoxy]-6-methyl-spiro[5,8-dihydropyrido[4,3-d]pyrimidine-7,1′-tetralin]-4-yl]-N,N-dimethyl-4,6,7,8-tetrahydropyrazolo[1,5-a][1,4]diazepine-2-carboxamide]
- IC50 ([1]; Homo sapiens): 0.01 to 0.1 µM
- IC50 [2]: < 0.01 µM

SMILES: CN(C)C(=O)c1nn2c(c1Cl)CN(c1nc(OCC3(CN4CCOCC4)CC3)nc3c1CO[C@@]1(CCc4c(Cl)cccc41)C3)CCC2 [Compound 47, 3-chloro-5-[(7S)-4′-chloro-2-[[1-(morpholinomethyl)cyclopropyl]methoxy]spiro[5,8-dihydropyrano[4,3-d]pyrimidine-7,1′-indane]-4-yl]-N,N-dimethyl-4,6,7,8-tetrahydropyrazolo[1,5-a][1,4]diazepine-2-carboxamide]
- IC50 ([1]; Homo sapiens): 1 to 10 µM
- IC50 [2]: < 0.01 µM

SMILES: CN(C)C(=O)c1cc2n(n1)CCCN(c1nc(OC[C@@]34CCCN3C[C@H](F)C4)nc3c1CO[C@]1(CCc4c(Cl)cccc41)C3)C2 [Compound 27B, 5-[(7R)-4′-chloro-2-[[(2R,8S)-2-fluoro-1,2,3,5,6,7-hexahydropyrrolizin-8-yl]methoxy]spiro[5,8-dihydropyrano[4,3-d]pyrimidine-7,1′-indane]-4-yl]-N,N-dimethyl-4,6,7,8-tetrahydropyrazolo[1,5-a][1,4]diazepine-2-carboxamide]
- IC50 [1]: 0.1 to 1 µM
- IC50 [2]: < 0.01 µM

SMILES: CN1Cc2c(nc(OC[C@@]34CCCN3C[C@H](F)C4)nc2N2CCCCCC2)C[C@]12CCc1c(Cl)cccc12 [Compound 28A, (7S)-4-(azepan-1-yl)-4′-chloro-2-[[(2R,8S)-2-fluoro-1,2,3,5,6,7-hexahydropyrrolizin-8-yl]methoxy]-6-methyl-spiro[5,8-dihydropyrido[4,3-d]pyrimidine-7,1′-indane]]
- IC50 ([1]; Homo sapiens): > 10 µM
- IC50 [2]: 1 to 20 µM
